Assay results reported in patent publication US20240383875A1, “Benzimidazole Pyridine Derivatives” (Hoffmann-La Roche Inc., priority 2022, published 2024).

How the values were obtained:
Assay type in all cases: biochemical
[1] = target: SIK1 (Homo sapiens, UniProt P57059); experiment: Enzymatic activity assay SIK1, RapidFire mass spectrometry (phosphorylation of CHK-peptide); conditions: RapidFire MS, inhibition of SIK1; read-out: SIK1 RF IC50
Method in brief: (§1)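 Human SIK1/2/3, 5/0.5/1.5 nM; 12.5 mM HEPES pH 7.0, 10 mM Mg acetate, 0.005% BSA. 30 min cpd pre-inc, + CHK-peptide (10 μM soln) + ATP (100 μM soln), 45 min RT. Formic acid stop; RF-MS phospho ratio; IC50.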

[2] = target: SIK2 (Homo sapiens, UniProt Q9H0K1); experiment: Enzymatic activity assay SIK2, RapidFire mass spectrometry (phosphorylation of CHK-peptide); conditions: RapidFire MS, inhibition of SIK2; read-out: SIK2 RF IC50
Method in brief: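 Read-out is the summed phospho-species fraction of CHK-peptide by RapidFire mass spectrometry, normalized between DMSO and 1 μM YKL-05-099. The reaction used 0.5 nM SIK2, 100 μM ATP and 10 μM peptide solutions in HEPES pH 7.0/10 mM magnesium acetate for 45 min at ambient temperature.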

[3] = target: SIK3 (Homo sapiens, UniProt Q9Y2K2); experiment: Enzymatic activity assay SIK3, RapidFire mass spectrometry (phosphorylation of CHK-peptide); conditions: RapidFire MS, inhibition of SIK3; read-out: SIK3 RF IC50
Method in brief: as §1

Chain of SIK3 (Q9Y2K2 whole entry): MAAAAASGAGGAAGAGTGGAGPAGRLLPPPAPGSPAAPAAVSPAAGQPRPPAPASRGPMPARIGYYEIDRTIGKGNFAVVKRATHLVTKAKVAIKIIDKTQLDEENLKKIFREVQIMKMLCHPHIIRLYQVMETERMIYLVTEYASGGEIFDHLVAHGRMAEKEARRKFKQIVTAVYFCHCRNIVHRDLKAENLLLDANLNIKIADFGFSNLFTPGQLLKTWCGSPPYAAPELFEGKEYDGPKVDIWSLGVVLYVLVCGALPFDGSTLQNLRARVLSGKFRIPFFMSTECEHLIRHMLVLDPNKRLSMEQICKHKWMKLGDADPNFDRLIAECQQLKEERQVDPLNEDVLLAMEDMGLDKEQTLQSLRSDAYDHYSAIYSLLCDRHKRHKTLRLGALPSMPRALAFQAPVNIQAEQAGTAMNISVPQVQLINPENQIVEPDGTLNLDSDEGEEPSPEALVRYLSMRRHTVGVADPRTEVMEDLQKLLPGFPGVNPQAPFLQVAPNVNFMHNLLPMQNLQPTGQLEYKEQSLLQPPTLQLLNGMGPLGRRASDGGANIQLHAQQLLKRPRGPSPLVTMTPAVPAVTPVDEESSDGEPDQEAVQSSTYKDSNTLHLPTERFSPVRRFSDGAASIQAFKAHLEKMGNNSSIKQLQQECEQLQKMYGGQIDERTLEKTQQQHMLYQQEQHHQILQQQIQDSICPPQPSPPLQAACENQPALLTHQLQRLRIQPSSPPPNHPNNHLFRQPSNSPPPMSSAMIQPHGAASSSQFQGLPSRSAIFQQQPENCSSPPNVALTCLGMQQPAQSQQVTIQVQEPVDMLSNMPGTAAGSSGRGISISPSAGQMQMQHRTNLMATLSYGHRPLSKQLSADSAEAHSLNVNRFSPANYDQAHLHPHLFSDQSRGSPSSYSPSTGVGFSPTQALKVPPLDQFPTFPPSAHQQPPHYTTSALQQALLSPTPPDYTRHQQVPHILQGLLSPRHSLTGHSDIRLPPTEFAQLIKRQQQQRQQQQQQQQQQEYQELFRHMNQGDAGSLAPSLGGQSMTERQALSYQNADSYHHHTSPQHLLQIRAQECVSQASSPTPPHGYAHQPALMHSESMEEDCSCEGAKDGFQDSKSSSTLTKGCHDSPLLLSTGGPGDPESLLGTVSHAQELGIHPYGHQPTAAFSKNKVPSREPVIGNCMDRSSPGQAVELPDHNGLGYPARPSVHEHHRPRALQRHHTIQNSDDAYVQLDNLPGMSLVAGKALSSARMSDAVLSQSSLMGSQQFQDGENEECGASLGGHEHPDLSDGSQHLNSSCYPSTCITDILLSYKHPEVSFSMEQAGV
Chain of SIK2 (Q9H0K1 whole entry): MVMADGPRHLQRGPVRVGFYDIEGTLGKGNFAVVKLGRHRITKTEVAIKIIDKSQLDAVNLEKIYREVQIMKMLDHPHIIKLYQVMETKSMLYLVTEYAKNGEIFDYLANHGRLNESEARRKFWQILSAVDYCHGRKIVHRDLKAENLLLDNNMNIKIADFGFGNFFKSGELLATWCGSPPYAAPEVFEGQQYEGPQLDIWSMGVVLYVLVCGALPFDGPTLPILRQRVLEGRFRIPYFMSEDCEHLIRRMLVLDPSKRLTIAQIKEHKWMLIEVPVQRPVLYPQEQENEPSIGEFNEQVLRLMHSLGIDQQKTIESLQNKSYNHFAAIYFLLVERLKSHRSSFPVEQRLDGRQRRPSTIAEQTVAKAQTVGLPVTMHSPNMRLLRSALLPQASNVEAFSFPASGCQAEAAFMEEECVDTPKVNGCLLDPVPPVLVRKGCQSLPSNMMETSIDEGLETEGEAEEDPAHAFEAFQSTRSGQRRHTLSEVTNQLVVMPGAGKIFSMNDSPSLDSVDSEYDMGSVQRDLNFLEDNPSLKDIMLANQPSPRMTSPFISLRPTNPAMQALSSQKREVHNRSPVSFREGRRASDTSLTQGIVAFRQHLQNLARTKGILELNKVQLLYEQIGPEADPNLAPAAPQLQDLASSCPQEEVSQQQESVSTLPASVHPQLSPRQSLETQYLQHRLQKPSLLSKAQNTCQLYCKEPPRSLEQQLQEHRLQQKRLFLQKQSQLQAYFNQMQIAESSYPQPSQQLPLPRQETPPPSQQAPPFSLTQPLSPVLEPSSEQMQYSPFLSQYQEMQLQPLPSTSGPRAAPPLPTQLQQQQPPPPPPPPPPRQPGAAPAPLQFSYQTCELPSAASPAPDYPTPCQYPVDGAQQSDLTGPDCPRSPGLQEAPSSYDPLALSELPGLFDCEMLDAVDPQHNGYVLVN
Chain of SIK1 (P57059 whole entry): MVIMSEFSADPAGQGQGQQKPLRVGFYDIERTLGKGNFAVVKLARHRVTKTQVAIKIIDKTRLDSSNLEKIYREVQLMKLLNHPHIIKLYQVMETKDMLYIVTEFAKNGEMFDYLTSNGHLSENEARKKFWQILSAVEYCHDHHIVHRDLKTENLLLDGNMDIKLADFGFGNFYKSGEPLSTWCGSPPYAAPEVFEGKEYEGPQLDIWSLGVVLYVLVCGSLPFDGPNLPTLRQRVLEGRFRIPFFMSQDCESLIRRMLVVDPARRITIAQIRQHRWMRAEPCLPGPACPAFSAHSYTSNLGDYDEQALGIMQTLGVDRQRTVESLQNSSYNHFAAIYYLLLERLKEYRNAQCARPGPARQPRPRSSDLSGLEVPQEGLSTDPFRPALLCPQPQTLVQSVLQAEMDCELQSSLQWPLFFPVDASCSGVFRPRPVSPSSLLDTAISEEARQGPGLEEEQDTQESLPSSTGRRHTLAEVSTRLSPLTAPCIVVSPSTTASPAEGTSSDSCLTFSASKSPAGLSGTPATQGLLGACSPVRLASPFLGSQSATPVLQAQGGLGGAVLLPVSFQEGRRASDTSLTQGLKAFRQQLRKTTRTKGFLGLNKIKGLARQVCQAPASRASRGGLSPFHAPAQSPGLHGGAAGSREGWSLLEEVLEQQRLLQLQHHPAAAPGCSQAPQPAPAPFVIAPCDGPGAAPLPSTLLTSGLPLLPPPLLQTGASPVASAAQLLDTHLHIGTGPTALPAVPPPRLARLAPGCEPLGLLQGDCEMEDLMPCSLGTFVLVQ

| SMILES | IC50 [1] | IC50 [2] | IC50 [3] |
| --- | --- | --- | --- |
| Cc1cc(C#N)nn1-c1nc(-n2cnc3cc(F)c(Nc4cc5c(nn4)CCC5)cc32)ccc1C(C)O (stereo not drawn) [Example 381, 1-[6-[6-(6,7-dihydro-5~{H}-cyclopenta[c]pyridazin-3-ylamino)-5-fluoro-benzimidazol-1-yl]-3-(1-hydroxyethyl)-2-pyridyl]-5-methyl-pyrazole-3-carbonitrile] | 55 nM | 32.7 nM | 195 nM |
| COc1cc2c(cc1Nc1cnc(C)nc1)ncn2-c1ccc([C@H](C)O)c(-n2nc(OC(F)F)cc2C)n1 [Example 400, (1S)-1-[2-[3-(difluoromethoxy)-5-methyl-pyrazol-1-yl]-6-[6-methoxy-5-[(2-methylpyrimidin-5-yl)amino]benzimidazol-1-yl]-3-pyridyl]ethanol] | 2 nM | 0.6 nM | 7.8 nM |
| COc1cc2ncn(-c3ccc([C@@H](C)O)c(-c4ccccc4C(N)=O)n3)c2cc1OC [Example 36, (R)-2-(6-(5,6-Dimethoxy-1H-benzo[d]imidazol-1-yl)-3-(1-hydroxyethyl)pyridin-2-yl)benzamide] | 23900 nM | 9680 nM | 13600 nM |
| Cc1ccc(Nc2cc3c(cc2OCCN2CCOCC2)ncn3-c2ccc(C(C)O)c(-n3nc(C#N)cc3C)n2)cn1 (stereo not drawn) [Example 294, 1-[3-(1-hydroxyethyl)-6-[6-[(6-methyl-3-pyridyl)amino]-5-(2-morpholinoethoxy)benzimidazol-1-yl]-2-pyridyl]-5-methyl-pyrazole-3-carbonitrile] | 2 nM | 0.3 nM | 3 nM |
| Cc1ccc(Nc2cc3ncn(-c4ccc([C@H](C)O)c(-n5nc(OC(F)F)cc5C)n4)c3cc2OC2COC2)nn1 [Example 383, (1S)-1-[2-[3-(difluoromethoxy)-5-methyl-pyrazol-1-yl]-6-[5-[(6-methylpyridazin-3-yl)amino]-6-(oxetan-3-yloxy)benzimidazol-1-yl]-3-pyridyl]ethanol] | 5 nM | 0.2 nM | 0.5 nM |
| Cc1cc(C#N)nn1-c1nc(-n2cnc3cc(Nc4nncc5c4OCCN5C)ccc32)ccc1C(C)O (stereo not drawn) [Example 310, 1-[3-(1-hydroxyethyl)-6-[5-[(4-methyl-2,3-dihydropyridazino[4,5-b][1,4]oxazin-8-yl)amino]benzimidazol-1-yl]-2-pyridyl]-5-methyl-pyrazole-3-carbonitrile] | 93 nM | 1.1 nM | 0.5 nM |
| Cc1ccc(Nc2ccc3c(c2)ncn3-c2ccc(C(C)O)c(-n3nc(C(F)(F)F)c4c3CCN(C3COC3)C4)n2)nn1 (stereo not drawn) [Example 177, 1-[6-[5-[(6-Methylpyridazin-3-yl)amino]benzimidazol-1-yl]-2-[5-(oxetan-3-yl)-3-(trifluoromethyl)-6,7-dihydro-4H-pyrazolo[4,3-c]pyridin-1-yl]-3-pyridyl]ethanol] | 253 nM | 2.8 nM | 3.1 nM |
| Cc1ccc(Nc2cc3ncn(-c4ccc(C(C)O)c(-n5nc(C#N)cc5C)n4)c3cc2OC(F)F)nn1 (stereo not drawn) [Example 388, 1-[6-[6-(difluoromethoxy)-5-[(6-methylpyridazin-3-yl)amino]benzimidazol-1-yl]-3-(1-hydroxyethyl)-2-pyridyl]-5-methyl-pyrazole-3-carbonitrile] | 11 nM | 0.4 nM | 0.7 nM |
| COc1cc2ncn(-c3ccc(CO)c(-c4ccc(F)cc4OC)n3)c2cc1OC [Example 16, (6-(5,6-Dimethoxy-1H-benzo[d]imidazol-1-yl)-2-(4-fluoro-2-methoxyphenyl)pyridin-3-yl)methanol] | 692 nM | 313 nM | 2180 nM |
| Cc1ccc(Nc2cc3ncn(-c4ccc([C@@H](C)O)c(-n5nc(C#N)cc5C)n4)c3cc2OC(F)F)nn1 [Example 403, 1-[6-[6-(difluoromethoxy)-5-[(6-methylpyridazin-3-yl)amino]benzimidazol-1-yl]-3-[(1R)-1-hydroxyethyl]-2-pyridyl]-5-methyl-pyrazole-3-carbonitrile] | 458 nM | 24.7 nM | 32.2 nM |
| Cc1nn(CC(F)(F)F)cc1-c1nc(-n2cnc3cc(NC(=O)CN4CCCCC4)ccc32)ccc1C(C)O (stereo not drawn) [Example 358, N-[1-[5-(1-hydroxyethyl)-6-[3-methyl-1-(2,2,2-trifluoroethyl)pyrazol-4-yl]-2-pyridyl]benzimidazol-5-yl]-2-(1-piperidyl)acetamide] | 51 nM | 2.5 nM | 8.4 nM |
| CC(O)c1ccc(-n2cnc3cc(OCCN4CCOCC4)ccc32)nc1-n1ccc(C(F)(F)F)n1 (stereo not drawn) [Example 62, 1-[6-[5-(2-Morpholinoethoxy)benzimidazol-1-yl]-2-[3-(trifluoromethyl)pyrazol-1-yl]-3-pyridyl]ethanol] | 1670 nM | 189 nM | 176 nM |

Now from value to compound:

| IC50 [1] | IC50 [2] | IC50 [3] | SMILES |
| --- | --- | --- | --- |
| 95 nM | 1.2 nM | 0.7 nM | Cc1cc(C#N)nn1-c1nc(-n2cnc3cc(Nc4cccnn4)ccc32)ccc1C(C)O (stereo not drawn) [Example 89, 1-[3-(1-Hydroxyethyl)-6-[5-(pyridazin-3-ylamino)benzimidazol-1-yl]-2-pyridyl]-5-methyl-pyrazole-3-carbonitrile] |
| 3820 nM | 42.6 nM | 6.4 nM | Cc1ccc(Nc2ccc3c(c2)ncn3-c2ccc(C(C)O)c(-n3nc(C)cc3C)n2)nn1 (stereo not drawn) [Example 108, 1-[2-(3,5-Dimethylpyrazol-1-yl)-6-[5-[(6-methylpyridazin-3-yl)amino]benzimidazol-1-yl]-3-pyridyl]ethanol; formic acid] |
| 756 nM | 9.3 nM | 1.1 nM | COCC(O)c1ccc(-n2cnc3cc(Nc4ccc(C)nn4)ccc32)nc1-n1nc(C#N)cc1C (stereo not drawn) [Example 234, 1-[3-(1-Hydroxy-2-methoxy-ethyl)-6-[5-[(6-methylpyridazin-3-yl)amino]benzimidazol-1-yl]-2-pyridyl]-5-methyl-pyrazole-3-carbonitrile; formic acid] |
| 497 nM | 11.6 nM | 6.4 nM | COc1cc(-c2nc(-n3cnc4cc(Nc5ccc(C)nn5)ccc43)ccc2C(C)O)c(C)cn1 (stereo not drawn) [Example 285, 1-[2-(2-methoxy-5-methyl-4-pyridyl)-6-[5-[(6-methylpyridazin-3-yl)amino]benzimidazol-1-yl]-3-pyridyl]ethanol] |
| 13600 nM | 4710 nM | 1880 nM | Cc1ccc(Nc2ccc3c(c2)ncn3-c2ccc(C(C)O)c(-n3ncc(C#N)c3C)n2)nn1 (stereo not drawn) [Example 151, 1-[3-(1-Hydroxyethyl)-6-[5-[(6-methylpyridazin-3-yl)amino]benzimidazol-1-yl]-2-pyridyl]-5-methyl-pyrazole-4-carbonitrile] |
| 39 nM | 26.3 nM | 149 nM | Cc1ccc(Nc2ccc3ncn(-c4ccc([C@H](C)O)c(-n5nc(C#N)cc5C)n4)c3c2)nn1 [Example 280, 1-[3-[(1S)-1-hydroxyethyl]-6-[6-[(6-methylpyridazin-3-yl)amino]benzimidazol-1-yl]-2-pyridyl]-5-methyl-pyrazole-3-carbonitrile] |
| 225 nM | 78.6 nM | 75.9 nM | Cc1ccc(Nc2cc3c(cc2F)ncn3-c2ccc(C(C)O)c(-n3nc(Cl)cc3C)n2)nn1 (stereo not drawn) [Example 354, 1-[2-(3-chloro-5-methyl-pyrazol-1-yl)-6-[5-fluoro-6-[(6-methylpyridazin-3-yl)amino]benzimidazol-1-yl]-3-pyridyl]ethanol] |
| 13300 nM | 359 nM | 95.5 nM | Cc1ccc(Nc2ccc3c(c2)ncn3-c2ccc(C(C)O)c(-c3cnn4c3C(=O)NCC4)n2)nn1 (stereo not drawn) [Example 165, 3-[3-(1-Hydroxyethyl)-6-[5-[(6-methylpyridazin-3-yl)amino]benzimidazol-1-yl]-2-pyridyl]-6,7-dihydro-5H-pyrazolo[1,5-a]pyrazin-4-one] |
| 3490 nM | 198 nM | 53.9 nM | Cc1ccc(Nc2ccc3c(c2)ncn3-c2ccc(C(C)O)c(N(C)CC3(C#N)CC3)n2)nn1 (stereo not drawn) [Example 173, 1-[[[3-(1-Hydroxyethyl)-6-[5-[(6-methylpyridazin-3-yl)amino]benzimidazol-1-yl]-2-pyridyl]-methyl-amino]methyl]cyclopropanecarbonitrile] |
| 2530 nM | 48.5 nM | 7.1 nM | Cc1ccc(Nc2ccc3c(c2)ncn3-c2ccc(C(C)O)c(N3CCOC(C(F)F)C3)n2)nn1 (stereo not drawn) [Example 323, 1-[2-[2-(difluoromethyl)morpholin-4-yl]-6-[5-[(6-methylpyridazin-3-yl)amino]benzimidazol-1-yl]-3-pyridyl]ethanol] |
| 595 nM | 12.4 nM | 5.8 nM | Cc1ccc(Nc2ccc3c(c2)ncn3-c2ccc(C(C)O)c(-c3cc(C4CC4)ncc3C)n2)nn1 (stereo not drawn) [Example 289, 1-[2-(2-cyclopropyl-5-methyl-4-pyridyl)-6-[5-[(6-methylpyridazin-3-yl)amino]benzimidazol-1-yl]-3-pyridyl]ethanol] |
| 152 nM | 1.2 nM | 1 nM | Cc1ccc(Nc2ccc3c(c2)ncn3-c2ccc(C(C)O)c(-c3nn(C(F)F)cc3C)n2)nn1 (stereo not drawn) [Example 363, 1-[2-[1-(difluoromethyl)-4-methyl-pyrazol-3-yl]-6-[5-[(6-methylpyridazin-3-yl)amino]benzimidazol-1-yl]-3-pyridyl]ethanol] |
| 216 nM | 2.1 nM | 1 nM | Cc1ccc(Nc2ccc3c(c2)ncn3-c2ccc(C(C)O)c(-n3cc(C)c(C#N)n3)n2)nn1 (stereo not drawn) [Example 170, 1-[3-(1-Hydroxyethyl)-6-[5-[(6-methylpyridazin-3-yl)amino]benzimidazol-1-yl]-2-pyridyl]-4-methyl-pyrazole-3-carbonitrile; formic acid] |
